Data as given in PubChem BioAssay (NCI).
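Grown in 96-well plates, cells were treated for 48 hours with each compound at five concentrations. Insufficient inhibition: endpoint recorded as highest concentration tested. The concentration for 50% growth inhibition is given as GI50. TGI is the concentration that stops growth completely.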

Assays:
Test in all cases: inhibition of tumour cell growth, NCI panel, 48 h
M14 melanoma = test system: M14 melanoma
MOLT-4 leukemia = test system: MOLT-4 leukemia
K-562 leukemia = test system: K-562 leukemia
MDA-MB-435 = test system: MDA-MB-435
SF-539 CNS = test system: SF-539 CNS
NCI-H23 lung = test system: NCI-H23 lung
EKVX NSCLC = test system: EKVX NSCLC
UACC-257 melanoma = test system: UACC-257 melanoma
SR leukemia = test system: SR leukemia

Compound	TGI (M14 melanoma) [µM]	TGI (MOLT-4 leukemia) [µM]	TGI (K-562 leukemia) [µM]	TGI (MDA-MB-435) [µM]	TGI (SF-539 CNS) [µM]	TGI (NCI-H23 lung) [µM]	TGI (EKVX NSCLC) [µM]	TGI (UACC-257 melanoma) [µM]	TGI (SR leukemia) [µM]	GI50 (MOLT-4 leukemia) [µM]	GI50 (K-562 leukemia) [µM]	GI50 (SR leukemia) [µM]	GI50 (NCI-H23 lung) [µM]	GI50 (M14 melanoma) [µM]	GI50 (EKVX NSCLC) [µM]	GI50 (UACC-257 melanoma) [µM]
CCCCCCCCCCCCOCC(COP(=O)(O)OCCN=[N+]=[N-])OC(=O)CCCCCCCCCCC (centres undefined)	> 100	> 100	> 100	> 100	> 100	> 100										
NC1CCC2(O)c3ccccc3C2C1 (centres undefined)	> 100	> 100	> 100			> 100	> 100	> 100	> 100							
CCOC(=O)CNC(=O)c1[nH]cnc1/N=N/N(C)C	> 100	> 100	> 100		> 100	> 100	> 100	> 100	> 100							
COc1cccc(/C=N/[N-]C(N)=O)c1[O-].[Cu+2].[OH3+]		38.3	45.2		33.5	21.9	34.9	28.5	43.9	10.1	5.7	5.67	9.7			
CC(=O)c1c(-c2ccc(Cl)cc2)c(C#N)c(=S)n(C2OC(CO)C(O)C(O)C2O)c1C (centres undefined)	> 100	52.8	> 100	> 100	> 100	> 100		> 100	87.6							
Cc1ccc(S(=O)(=O)N/N=c2/sc3ccccc3n2C)cc1		> 100	> 100	> 100	> 100	> 100	> 100	> 100	> 100							
CCOC(=O)C(Cc1ccc(N=NN(C)C)cc1)NC(=O)CC1c2ccccc2-c2ccccc21 (centres undefined)	> 100	> 100	> 100		> 100	> 100	> 100	> 100	> 100							
C/C(CCN(C)C)=N/O	21.9	4.82	6.97		1.89	25.5	28.8	33.2	5.67							
CC1CC(c2ccccc2)=Nc2ccccc2S1 (centres undefined)	> 100	> 100	> 100		> 100	> 100	> 100	> 100	> 100							
COCc1cc2c(s1)C(=O)C1=C(C2=O)C2(C=C(Br)C(=O)C(Br)=C2)CCN1	4.32	8.29	9.32	2.94	15.5	9.51	26.3	3.32	8.35							
CN(C)c1cccc2c(S(=O)(=O)NCCN)cccc12	> 100	> 100	> 100	> 100	> 100	> 100	> 100	> 100	> 100							
COc1c(OC2OC(CO)C(O)C(O)C2O)cc2c(c1OC)-c1ccc(OC)c(=O)cc1C(NC(C)=O)CC2 (centres undefined)	> 100	> 100	> 100		> 100	> 100	> 100	> 100	> 100							
Cc1ccc(NC(=O)CC/C(CC(=O)C(C)(C)C)=N/NC(=O)c2cc3ccccc3cc2O)cc1C	96	> 100				47.6	> 100	> 100								
O=C(O)C1CCC(=O)N1C(=O)COc1cc(Cl)c(Cl)cc1Cl (centres undefined)	> 100					> 100	> 100	> 100								
COCOC1CCCC[C@@]1(OCCOCCO[C@@]1(c2ccccc2)CCCC[C@H]1OCOC)c1ccccc1 (some centres undefined)	> 100		> 100			> 100	> 100	> 100	> 100							
COc1cc(C2c3cc4c(cc3[C@@H](Nc3ccc(F)cc3)C3COC[C@H]23)OCO4)cc(OC)c1O (some centres undefined)	> 25	0.993	20.7	> 25	3.49		> 25	> 25	5.5							
CN1C(c2ccccc2)CC(O)CC1c1ccccc1 (centres undefined)	> 100	> 100	> 100		> 100	> 100	> 100	> 100	> 100							
COc1ccc(/C(C=O)=C(\Cl)c2ccc(OC)c(OC)c2)cc1	> 100	> 100	> 100		> 100	> 100	> 100	> 100	31.7							
O=C1c2ccccc2-c2c1c1ccccc1c(=O)n2CCCNCCNCCCn1c2c(c3ccccc3c1=O)C(=O)c1ccccc1-2	1.93	> 100	> 100			2.57	2.88	3.47	> 100	< 0.01	< 0.0335	0.0509	0.508	0.288	1.23	1.24
CC1(C)N=C(/C(Cl)=[N+](/[O-])C(=O)c2ccc(Cl)cc2)C(C)(C)N1O	32.1		> 100	52.4	44	48.6	> 100	38.1	> 100							
